From patent US20230025510A1, “BIARYL ETHER-TYPE QUINAZOLINE DERIVATIVES” (DAIICHI SANKYO COMPANY, LIMITED, priority 2018, published 2023)

Legend:
Type in all cases: cell-based
[1] = tested on: Ba/F3-EGFR WT cells; assay: Cell proliferation suppression test (CellTiter-Glo, GI50), Ba/F3-EGFR WT; conditions: Mus musculus, 72 h, 100 ng/mL EGF, 3 days, N=4
Summary of the method: (§1)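 Ba/F3 lines in RPMI 1640/10% FBS without puromycin; IL-3 5 ng/mL added for Mock, EGF 100 ng/mL for EGFR WT. Cells treated 3 days at 37 °C, 5% CO2; ATP measured by CellTiter-Glo 2.0 on day 0 and day 3 (N=4). GI50 is the concentration inhibiting 50% of day 0–3 proliferation.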

[2] = tested on: Ba/F3-Mock cells; assay: Cell proliferation suppression test (CellTiter-Glo, GI50), Ba/F3-Mock; conditions: Mus musculus, BaF3, 72 h, 5 ng/mL IL-3, 3 days, N=4
Summary of the method: as §1

[3] = tested on: Ba/F3-EGFR ins. SVD cells; assay: Cell proliferation suppression test (CellTiter-Glo, GI50), Ba/F3-EGFR ins. SVD; conditions: Mus musculus, 72 h, 3 days, N=4
Summary of the method: as §1

[4] = tested on: Ba/F3-EGFR ins. ASV cells; assay: Cell proliferation suppression test (CellTiter-Glo, GI50), Ba/F3-EGFR ins. ASV; conditions: Mus musculus, 72 h, 3 days, N=4
Summary of the method: as §1

COc1cc2ncnc(Nc3ccc(Oc4nc(CC(=O)NC(C)(C)C)cs4)cc3F)c2cc1NC(=O)/C=C/CN1CC[C@@H](OC)C1 [Example 61, (2E)-N-{4-[4-({4-[2-(tert-Butylamino)-2-oxoethyl]-1,3-thiazol-2-yl}oxy)-2-fluoroanilino]-7-methoxyquinazolin-6-yl}-4-[(3R)-3-methoxypyrrolidin-1-yl]but-2-enamide]
GI50 [1]: 731 nM | GI50 [2]: 3120 nM | GI50 [3]: 88.1 nM | GI50 [4]: 25.6 nM

COc1cc2ncnc(Nc3ccc(Oc4nc(-c5nnc(C6CC6)o5)cs4)cc3F)c2cc1NC(=O)/C=C/CN1CC[C@@H](F)C1 [Example 62, (2E)-N-[4-(4-{[4-(5-Cyclopropyl-1,3,4-oxadiazol-2-yl)-1,3-thiazol-2-yl]oxy}-2-fluoroanilino)-7-methoxyquinazolin-6-yl]-4-[(3R)-3-fluoropyrrolidin-1-yl]but-2-enamide]
GI50 [1]: 733 nM | GI50 [2]: 1490 nM | GI50 [3]: 210 nM | GI50 [4]: 43.9 nM

COc1cc2ncnc(Nc3ccc(Oc4nc(-c5nnc(C6CC6)o5)cs4)cc3F)c2cc1NC(=O)/C=C/CN1CC[C@@H](OC)C1 [Example 63, (2E)-N-[4-(4-{[4-(5-Cyclopropyl-1,3,4-oxadiazol-2-yl)-1,3-thiazol-2-yl]oxy}-2-fluoroanilino)-7-methoxyquinazolin-6-yl]-4-[(3R)-3-methoxypyrrolidin-1-yl]but-2-enamide]
GI50 [1]: 129 nM | GI50 [2]: 1060 nM | GI50 [3]: 81.8 nM | GI50 [4]: 49.5 nM
